# Paper PMC6727846 (Journal of medicinal chemistry, 2019)
# Read-outs that look alike come from different tables or passages of the source.
# How the values were obtained:
# Pf PM-V = Pf PM-V (Plasmodium falciparum, UniProt Q8I6Z5); format: cell-based; conditions: knockdown assay; data not shown
# Cytotoxicity selectivity = format: cell-based
# [1] = Mouse liver microsome metabolic stability; conditions: in words
# PM-IX = molecular target: T1, PM-IX (Plasmodium falciparum, UniProt Q8ILG2); format: cell-based; conditions: western blot, substrate processing; data not shown
# T1 sequence (Q8ILG2 1-627): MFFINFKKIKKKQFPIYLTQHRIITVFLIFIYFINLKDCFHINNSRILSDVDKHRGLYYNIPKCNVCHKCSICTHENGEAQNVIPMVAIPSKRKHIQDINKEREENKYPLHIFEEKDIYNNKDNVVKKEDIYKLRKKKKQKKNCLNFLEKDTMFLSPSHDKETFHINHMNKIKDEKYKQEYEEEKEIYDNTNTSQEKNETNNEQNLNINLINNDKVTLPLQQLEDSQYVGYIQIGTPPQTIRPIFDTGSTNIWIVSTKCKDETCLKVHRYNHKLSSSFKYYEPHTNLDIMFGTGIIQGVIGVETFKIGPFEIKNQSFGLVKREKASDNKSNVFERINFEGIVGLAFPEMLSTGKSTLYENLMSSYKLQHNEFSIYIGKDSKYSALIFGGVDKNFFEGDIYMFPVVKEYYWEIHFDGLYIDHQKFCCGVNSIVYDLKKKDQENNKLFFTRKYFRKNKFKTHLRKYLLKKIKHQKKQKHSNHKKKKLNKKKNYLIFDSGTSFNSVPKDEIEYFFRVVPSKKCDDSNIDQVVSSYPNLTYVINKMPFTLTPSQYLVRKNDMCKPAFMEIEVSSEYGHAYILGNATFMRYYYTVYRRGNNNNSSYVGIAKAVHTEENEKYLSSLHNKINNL
# PM-X = PM-X (Plasmodium falciparum, UniProt Q8IAS0); format: cell-based; conditions: western blot, substrate processing; data not shown
# Chain of PM-X (Q8IAS0 222-573): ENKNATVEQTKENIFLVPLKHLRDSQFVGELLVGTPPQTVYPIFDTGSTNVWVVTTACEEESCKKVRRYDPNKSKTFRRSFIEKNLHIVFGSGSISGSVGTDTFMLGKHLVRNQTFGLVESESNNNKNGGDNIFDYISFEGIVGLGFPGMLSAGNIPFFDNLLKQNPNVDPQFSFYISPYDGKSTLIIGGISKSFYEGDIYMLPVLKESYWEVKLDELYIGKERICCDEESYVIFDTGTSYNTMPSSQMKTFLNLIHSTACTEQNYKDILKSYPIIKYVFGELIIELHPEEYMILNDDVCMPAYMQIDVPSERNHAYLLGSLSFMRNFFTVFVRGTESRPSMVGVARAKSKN
# [2] = test system: Plasmodium falciparum 3D7 (CQ-sensitive); test: In vitro antimalarial SYBR Green I fluorescence assay; format: cell-based; conditions: for effect of substitution on Pf 3D7 potency, in words: SAR statement in text
# Pf plasmepsin II (PM-II) = Pf plasmepsin II (PM-II) (Plasmodium falciparum, UniProt Q8I6V3); test: biochemical
# Chain of Pf plasmepsin II (PM-II) (Q8I6V3 125-453): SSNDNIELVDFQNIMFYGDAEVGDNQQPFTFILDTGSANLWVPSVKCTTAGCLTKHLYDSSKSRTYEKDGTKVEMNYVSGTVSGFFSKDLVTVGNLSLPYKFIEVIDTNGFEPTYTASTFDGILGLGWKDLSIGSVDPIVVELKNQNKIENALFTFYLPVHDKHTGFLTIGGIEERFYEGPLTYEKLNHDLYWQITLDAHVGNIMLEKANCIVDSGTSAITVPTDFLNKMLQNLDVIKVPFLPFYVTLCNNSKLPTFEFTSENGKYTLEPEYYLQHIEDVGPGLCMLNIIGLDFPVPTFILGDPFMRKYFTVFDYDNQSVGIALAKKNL
# [3] = test system: Plasmodium falciparum Dd2 (multi-drug resistant); test: In vitro antimalarial SYBR Green I fluorescence assay; format: cell-based
# [4] = Plasmodium falciparum, 3D7, 72 h, read-out: Pf 3D7 IC50
# [5] = Plasmodium falciparum, 3D7, read-out: Pf 3D7 IC50 (side-by-side with CQ)
# Chain of Pf PM-V (Q8I6Z5 whole entry): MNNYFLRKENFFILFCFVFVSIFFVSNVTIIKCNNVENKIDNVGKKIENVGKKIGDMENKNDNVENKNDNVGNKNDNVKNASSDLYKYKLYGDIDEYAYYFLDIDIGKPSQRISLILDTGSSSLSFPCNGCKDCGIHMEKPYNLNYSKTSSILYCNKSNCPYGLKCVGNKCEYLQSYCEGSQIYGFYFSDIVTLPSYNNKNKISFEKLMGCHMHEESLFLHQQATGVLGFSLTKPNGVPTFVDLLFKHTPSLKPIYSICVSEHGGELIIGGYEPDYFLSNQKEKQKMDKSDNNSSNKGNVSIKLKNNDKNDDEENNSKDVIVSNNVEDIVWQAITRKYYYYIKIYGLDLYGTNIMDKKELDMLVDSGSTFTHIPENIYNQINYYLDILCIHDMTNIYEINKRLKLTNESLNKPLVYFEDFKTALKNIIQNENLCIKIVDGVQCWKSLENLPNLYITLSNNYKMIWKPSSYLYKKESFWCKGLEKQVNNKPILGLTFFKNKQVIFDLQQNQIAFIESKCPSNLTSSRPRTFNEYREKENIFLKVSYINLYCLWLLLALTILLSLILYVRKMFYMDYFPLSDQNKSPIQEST
smiles,measurement,setting,value
COc1ccc(CNC(=O)[C@@H]2CNC[C@H]2c2ccc(C(F)(F)F)cc2)cc1 (racemic) [compound 6],inhibition of Pf PM-V,Pf PM-V,inactive
same,selectivity ratio,Cytotoxicity selectivity,100
same,metabolic stability profile in mouse liver microsomes,[1],improved
same,inhibition of PM-IX,PM-IX,inactive
same,inhibition of PM-X,PM-X,inactive
same,increase in potency relative to H (13),"[2]; Pf 3D7, amide benzyl ring SAR",10 fold
same,IC50,[2]; [4],385 nM
CN(C)c1ccc(CNC(=O)[C@H]2CNC[C@@H]2c2ccc(C(F)(F)F)nc2)cc1 (racemic) [compound 34],IC50,Pf plasmepsin II (PM-II),> 10000 nM
same,IC50,[2]; [4],230 nM
same,"effect of substitution on Pf 3D7 potency, in words",[2],without loss in potency
"C[C@H](NC(=O)[C@H]1CNC[C@@H]1c1ccc(C(F)(F)F)cc1)c1ccc(N(C)C)cc1 [54b, (+)-(3R,4S)-N-[(1S)-1-[4-(dimethylamino)phenyl]ethyl]-4-[4-(trifluoromethyl)phenyl]pyrrolidine-3-carboxamide]",EC50,"[3]; DD2, read-out: EC50 against drug resistant Dd2 strain",21 nM
same,IC50,[2]; [4],51 nM
same,EC50,"[2]; Plasmodium falciparum, 3D7, read-out: EC50 against drug sensitive Plasmodium falciparum 3D7",46 nM
same,IC50,[2]; [5],46 ± 6 nM
"C[C@@H]1CC[C@H]2[C@@H](C)C(=O)O[C@@H]3O[C@@]4(C)CC[C@@H]1[C@]32OO4 [artemesinin, reference compound]",IC50,[2]; [4],33 ± 0.6 nM
"CCN(CC)CCCC(C)Nc1ccnc2cc(Cl)ccc12 (stereo not drawn) [chloroquine, reference compound]",IC50,"[3]; DD2, read-out: Pf Dd2 IC50 (side-by-side with CQ)",196 ± 14 nM
same,IC50,[2]; [4],54 ± 0.4 nM
same,IC50,[2]; [5],38 ± 2 nM
Cc1ccc(CNC(=O)[C@@H]2CNC[C@H]2c2ccc(C(F)(F)F)cc2)cc1 [compound 12],IC50,Pf plasmepsin II (PM-II),> 10000 nM
CN(C)c1ccc(CNC(=O)[C@H]2CNC[C@@H]2c2ccc(C(F)(F)F)cc2)cc1 [compound 14],IC50,Pf plasmepsin II (PM-II),> 10000 nM
CCN(CC)c1ccc(CNC(=O)[C@@H]2CNC[C@H]2c2ccc(C(F)(F)F)cc2)cc1 [compound 16],IC50,Pf plasmepsin II (PM-II),> 10000 nM
CN(C)c1ccc(CNC(=O)[C@@H]2CNC[C@H]2c2ccc(C(F)(F)F)c(F)c2)cc1 [compound 24],IC50,Pf plasmepsin II (PM-II),> 10000 nM
CN(C)c1ccc(CNC(=O)[C@@H]2CNC[C@H]2c2ccc(C(F)(F)F)c(Cl)c2)cc1 [compound 26],IC50,Pf plasmepsin II (PM-II),> 10000 nM
CN(C)c1ccc(CNC(=O)[C@@H]2CNC[C@H]2c2ccc(Oc3ccccc3)cc2)cc1 [compound 30],IC50,Pf plasmepsin II (PM-II),> 10000 nM
same,"effect of substitution on Pf 3D7 potency, in words",[2],tolerated
CN(C)c1ccc(CNC(=O)[C@H]2CNC[C@@H]2c2cnc(C(F)(F)F)nc2)cc1 [compound 35],"effect of substitution on Pf 3D7 potency, in words",[2],modest erosion of potency
"C[C@@H](NC(=O)[C@H]1CNC[C@@H]1c1ccc(C(F)(F)F)nc1)c1ccc(N(C)C)cc1 [compound 55, (+)-(3R,4S)-N-[(1R)-1-[4-(dimethylamino)phenyl]ethyl]-4-[6-(trifluoromethyl)pyridin-3-yl]pyrrolidine-3-carboxamide]",reduction / loss in potency relative to parent analog,"[2]; Pf 3D7, SAR comparison stated in text",> 30 fold
